The results in this text go back to patent publication US20260355184A1, “SMALL MOLECULE DEGRADERS OF HIV-1 TAT PROTEIN” (priority 2022, published 2026).

Usually CC50 stands for the concentration giving 50% cytotoxicity. A higher CC50 goes with better tolerance by the cells. A word on the IC50: it is the midpoint of a concentration-inhibition curve.

For one data set, the target named is Flag-Tat and GFP (Human immunodeficiency virus type 1 (HXB3 ISOLATE), UniProt P69698). Briefly: J-Lat A2 cells stimulated with TNF-α, western blot of Flag-Tat and GFP. Type of data set: cell-based, HIV. The note with it: TNF-α 20 ng/mL, 17 hours. As to the method: FIG. 5. […] Triptolide: 1 nM, TT-44856 and TT-44863: 40 μM, TT-44881: 60 μM. […] C. Impact of the lead hits on J-Lat A2 cells upon 17 hours stimulation with TNF-α (20 ng/mL). EPL: 10 μM, Triptolide (TRP): 1 nM, TT-44856 and TT-44863: 40 μM, TT-44881: 60 μM. […] Triptolide: 1 nM, TT-44856 and TT-44863: 40 μM, TT-44881: 60 μM.
(§1) Next, the effect of the three leads on the alteration of Tat steady state levels was assessed. Tat expression from an integrated provirus, or from HIV acute infection is generally too low to be detected by western blot. Furthermore, antibodies against Tat are known for their lack of avidity. Tat degradation was thus assessed upon transfection. Flag-Tat or Flag-GFP were individually transfected into HEK293T and 24 hrs later, TT-44856, TT-44863 or TT-44881 were added to the culture, followed by Western blot 24 hrs later (dubbed “degradation assay”) (FIG. 5A). […] Finally, the leads' impact on recombinant Tat protein in HEK293T cells was assessed (FIG. 5D). HEK293T cells were incubated with recombinant Tat for 4 hrs to allow Tat internalization, followed by several thorough washes to remove unincorporated Tat. Cells were then incubated with all three leads (or Triptolide) for an additional 2 hrs. Cells were lysed and analyzed by western blot with an anti-Tat serum.
In general terms: A western blot detects proteins with antibodies after separation by electrophoresis.

Data set [1] can be described thus: Cytotoxicity assay, Cell-Titer-Glo, HeLa-CD4-LTR-LacZ. The conditions noted are these: human, hela-cd4-ltr-lacz cells, Infectivity CC50, HeLa-CD4-LTR-LacZ. The method, boiled down:
(§2)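 HeLa-CD4-LTR-LacZ reporter cells (β-Gal under HIV 5′ LTR) infected with HIV NL4.3; β-Gal activity read 72 h post infection, with parallel Cell-Titer-Glo viability. OM10.1 carry a single wild-type provirus; ACH-2 a single provirus with TAR C37T mutation, defective Tat-TAR feedback.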

In a further data set the test system is HeLa-CD4-LTR-LacZ cells. Described as above. The note with it: Cell-Titer-Glo in parallel to infectivity assay. In short, it runs like this: as §2
In the next data set the test system is OM10.1 cells. Briefly: SAHA mediated reactivation from latency in OM10.1 cells. The note with it: day 12 and day 32, vs DMSO+ARVs. Type of data set: cell-based, HIV.
The test system of another data set is ACH-2 cells. Briefly: Cell-associated HIV Gag mRNA expression / HIV transcription in latently infected ACH-2 cells. Type of data set: cell-based. The note with it: ACH2; 96-day period with ARVs; n=1. As for the experimental part: Next, the activity of these leads against HIV infection was evaluated using the reporter cell line HeLa-CD4-LTR-LacZ, which stably expresses the β-galactosidase (β-Gal) gene under the control of the HIV 5′ LTR. The HIV NL4.3 strain was used for these studies and β-Gal activity was measured 72 hrs post infection (FIG. 3A). Cytotoxicity assays using Cell-Titer-Glo were performed in parallel to assess cell viability (FIG. 3A). […] Their anti-HIV activity was further assessed in acute replication of Jurkat T cells with the NL4.3 strain (FIG. 3A). […] These OM10.1 cells contain a single integrated wild-type provirus, while ACH-2 cells contain a single integrated provirus with a TAR mutation C37T, defective Tat-TAR feedback loop (FIG. 3B).

The test system of another data set is HIV NL4.3 strain. Kind of data set: HIV infectivity assay, reporter cell line HeLa-CD4-LTR-LacZ, β-Gal activity (Tat protein inhibition). The data set is classed as cell-based, HIV-1 (NL4.3). The method, boiled down: as §2
Another data set deals with GFP. Briefly: Degradation assay control: GFP in HEK293T cells, western blot. The data set is classed as cell-based. As for the experimental part:
as §1

Data set [2] concerns the target Tat variants with cysteine or core regions truncated (Human immunodeficiency virus type 1 (HXB3 ISOLATE), UniProt P69698). The conditions noted are these: TT-44856 and TT-44863 40 μM, TT-44881 60 μM. An excerpt: (§3) The molecular docking of HIV Tat protein bound to dCA was previously reported, informed by a series of more than 60 analogs of dCA, using AutoDock Vina with the NMR HIV Tat Mal protein (D clade) as a template (Protein data Bank, PDB entry 1K5K)21. […] Single changes to residues Y26 and F38 decrease Tat transactivation activity^33-36. […] To validate the molecular docking model, Tat variants with either deletions or mutated residues were used in degradation assays in the presence of leads.

The target of the next data set is Tat Y26A (Human immunodeficiency virus type 1 (HXB3 ISOLATE), UniProt P69698, Y26A). The conditions noted are these: TT-44856 and TT-44863 40 μM, TT-44881 60 μM.
Description: as §3

For the next data set, the target named is Tat F38A (Human immunodeficiency virus type 1 (HXB3 ISOLATE), UniProt P69698, F38A). The conditions noted are these: TT-44856 and TT-44863 40 μM, TT-44881 60 μM.
Description: as §3

The next data set deals with ACH2 cells. Briefly: SAHA mediated reactivation from latency in ACH2 cells. The data set is classed as cell-based, HIV. The note with it: text: day 12 and 32, FIG. 4B legend: day 12, vs DMSO+ARVs.
Data set [3] relates to TAR-SIIB promoter (Flag-Tat-Rev fusion protein). Kind of data set: Flag-Tat-Rev fusion protein transactivation of TAR-SIIB promoter. Type of data set: cell-based, HIV-1. The conditions noted are these: SIIB reporter HEK293T. As to the method: FIG. 4. […] Shown is n=1. […] Shown is n=1. ARVs: antiretrovirals: 100 nM Efavirenz, 200 nM Lamivudine and 200 nM Raltegravir. C. […] SIIB: a reporter HEK293T stable cell line where the essential apical region of TAR was replaced by the 29-nucleotide stem-loop IIB (SIIB) subdomain of the HIV-1 RRE. A Tat-Rev fusion protein activates transcription of luciferase when Rev binds SIIB, bringing Tat and P-TEFb to RNAPII at the HIV promoter. Shown is mean±SEM of n=4.

A further data set deals with Tat lysine mutants. The conditions noted are these: TT-44881 60 μM; for Tat degradation, K28R, K29R and K41R: TT-44856 and TT-44863 40 μM; for Tat degradation, K28R, K29R and K41R / Tat degradation, single or combined lysine mutations: n=1; for Tat degradation, single or combined lysine mutations / Tat degradation, additional lysine mutations to K28R, K29R and K41R: TT-44856 40 μM; for Tat degradation, additional lysine mutations to K28R, K29R and K41R: n=2. The source says:
Tat 86 a.a. has 9 lysine residues (FIG. 8D) that could be engaged by lysine 48-linked ubiquitin chains or nonconventional ubiquitin chains, i.e., non-Lys-48 or non-Lys-63, to be degraded through the 26S proteasomal pathway^3738. […] Tat lysine residues required for leads' degradation engagement can be determined.
In addition to K28-29-K41R, other Tat's lysine residues were mutated and degradation assays performed in the presence of TT-44881 or TT-44856.

Another data set addresses T1, recombinant Tat (Human immunodeficiency virus type 1 (HXB3 ISOLATE), UniProt P69698).
T1 construct: detected with anti-Tat serum
Briefly: Recombinant Tat stability in HEK293T cells, western blot. Type of data set: cell-based, HIV. The conditions noted are these: 4 hrs recombinant Tat then 2 hrs compound, n=1. As for the experimental part:
as §1

Setting [4] is: Human immunodeficiency virus 1, 72 h, read-out: IC50 against HIV infection, HeLa-CD4-LTR-LacZ, HIV NL4.3, β-Gal 72 hrs post infection.

Read-outs that look alike come from different tables or passages of the source.

Tat F38A, sequence (P69698 whole entry F38A): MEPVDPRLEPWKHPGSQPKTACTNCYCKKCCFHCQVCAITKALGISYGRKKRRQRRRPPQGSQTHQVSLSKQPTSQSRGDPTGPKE
Tat Y26A, sequence (P69698 whole entry Y26A): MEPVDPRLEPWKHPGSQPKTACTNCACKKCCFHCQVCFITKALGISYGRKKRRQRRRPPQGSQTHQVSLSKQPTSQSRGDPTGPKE
Flag-Tat and GFP, sequence (P69698 whole entry): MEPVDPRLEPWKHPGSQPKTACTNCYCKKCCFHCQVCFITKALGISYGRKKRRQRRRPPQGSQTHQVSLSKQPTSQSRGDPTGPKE
T1 sequence (P69698 whole entry): as above

For the compound `COCCOc1ccc(C(F)(F)F)cc1NC(=O)Cn1cc(C(F)(F)F)cc(Cl)c1=O` [TT-44863], the “Flag-Tat and GFP levels in J-Lat A2 cells” value (“Flag-Tat and GFP levels” below) on Flag-Tat and GFP is reported as “strongly reduced”. Moreover, the CC50 in [1] (analogs of TT-44863 (Table 2)) is more than 800 µM. Also, in the data set on HeLa-CD4-LTR-LacZ cells, the toxicity result was “without signs of toxicity”. The “SAHA mediated reactivation from latency” value in the data set with OM10.1 cells and with ACH2 cells was “potently blocked SAHA mediated reactivation from latency” throughout. Moreover, the “HIV transcription (in words)” value in the data set with ACH-2 cells is “inhibit HIV transcription”. In addition, the IC50 in the data set with HIV NL4.3 strain (setting [4]) was 6 ± 1.3 µM; in the data set with HIV NL4.3 strain (Human immunodeficiency virus 1, read-out: Infectivity IC50, HeLa-CD4-LTR-LacZ, analogs of TT-44863 (Table 2)) it was 1 to 10 µM. Further, the “effect on GFP expression” value with GFP was “did not affect GFP expression”. Moreover, in data set [2], the “Flag-Tat degradation, cysteine or core regions truncated” value (shortened to “Flag-Tat degradation”) is “no longer degraded Flag-Tat”. In addition, at Tat Y26A, the “Tat degradation, Y26A mutation” value was “ablated lead hits' ability to mediate Tat degradation”. The “Tat degradation, F38A mutation” value at Tat F38A was “only weakly reduced lead hits mediated degradation”. Moreover, in data set [3], the “Flag-Tat-Rev transactivation of TAR-SIIB” value was “inhibit Tat-Rev fusion protein transactivation”. For the same compound, the “Tat degradation, K28R, K29R and K41R” value with Tat lysine mutants is listed as “do not prevent lead hits induced Tat degradation”. On recombinant Tat, the “recombinant Tat degradation” value was “degraded Tat as opposed to the DMSO control”.

With `CC(C(=O)NCCCn1ccnc1)(c1ccccc1)c1ccccc1` [TT-44856], the “Flag-Tat and GFP levels” value on Flag-Tat and GFP was “strongly reduced”. Further, in data set [1] (analogs of TT-44856 (Table 3)), the CC50 was more than 100 µM. The toxicity result in the data set with HeLa-CD4-LTR-LacZ cells is “without signs of toxicity”. Moreover, the IC50 in the data set on HIV NL4.3 strain (setting [4]) worked out at 20.5 ± 9.5 µM. In addition, in the data set on HIV NL4.3 strain (Human immunodeficiency virus 1, read-out: Infectivity IC50, HeLa-CD4-LTR-LacZ, analogs of TT-44856 (Table 3)), the 50% inhibitory concentration (IC50) was 1 to 20 µM. Besides, the “effect on GFP expression” value with GFP was “did not affect GFP expression”. In addition, the “Flag-Tat degradation” value in data set [2] is “no longer degraded Flag-Tat”. Further, at Tat Y26A, the “Tat degradation, Y26A mutation” value is reported as “ablated lead hits' ability to mediate Tat degradation”. For the same compound, at Tat F38A, the “Tat degradation, F38A mutation” value is given as “only weakly reduced lead hits mediated degradation”. Besides, in the data set on Tat lysine mutants, the “Tat degradation, single or combined lysine mutations” value was “all the mutants were similarly degraded to the control”; the “Tat degradation, additional lysine mutations to K28R, K29R and K41R” value is reported as “required either K50/51, K71 or K85”; the “Tat degradation, K28R, K29R and K41R” value is recorded as “do not prevent lead hits induced Tat degradation”. Besides, the “recombinant Tat degradation” value at recombinant Tat was “degraded Tat as opposed to the DMSO control”.

With `O=C(CCCCN1CCCC1=O)c1nn(-c2ccccc2)c2c1CCC2` [TT-44881], the “Flag-Tat and GFP levels” value at Flag-Tat and GFP is “strongly reduced”. This compound also gave a CC50 in [1] (analogs of TT-44881 (Table 1)) of more than 100 µM. In addition, in the data set on HeLa-CD4-LTR-LacZ cells, the toxicity entry is listed as “without signs of toxicity”. Moreover, the “SAHA mediated reactivation from latency” value in the data set on OM10.1 cells and in the data set on ACH2 cells was “potently blocked SAHA mediated reactivation from latency” throughout. In addition, the “HIV transcription (in words)” value in the data set with ACH-2 cells is reported as “inhibit HIV transcription”. In addition, the IC50 in the data set with HIV NL4.3 strain (setting [4]) was 19.7 ± 4.5 µM; with HIV NL4.3 strain (Human immunodeficiency virus 1, read-out: Infectivity IC50, HeLa-CD4-LTR-LacZ, analogs of TT-44881 (Table 1)) it was 1 to 20 µM. Besides, the “effect on GFP expression” value in the data set with GFP is on record as “did not affect GFP expression”. Moreover, in data set [2], the “Flag-Tat degradation” value is recorded as “no longer degraded Flag-Tat”. For the same compound, the “Tat degradation, Y26A mutation” value on Tat Y26A was “ablated lead hits' ability to mediate Tat degradation”. In addition, on Tat F38A, the “Tat degradation, F38A mutation” value is “only weakly reduced lead hits mediated degradation”. Moreover, the “Flag-Tat-Rev transactivation of TAR-SIIB” value in [3] is recorded as “inhibit Tat-Rev fusion protein transactivation”. In the data set on Tat lysine mutants, the “Tat degradation, single or combined lysine mutations” value is recorded as “all the mutants were similarly degraded to the control”. Also, in the data set with Tat lysine mutants, the “Tat degradation, additional lysine mutations to K28R, K29R and K41R” value is “mutation of the K19 or K71 to arginine reduced TT-44881 induced Tat degradation”. In addition, the “Tat degradation, K28R, K29R and K41R” value with Tat lysine mutants is “do not prevent lead hits induced Tat degradation”. For the same compound, on recombinant Tat, the “recombinant Tat degradation” value is reported as “degraded Tat as opposed to the DMSO control”.
